Laboratory results taken from EP0326331B1, “Substituted quinolines and cinnolines” (Dow AgroSciences LLC, priority 1988, dated 1989).

Tests used:
Assay type in all cases: in vivo
[1] = system: Erysiphe graminis tritici (powdery mildew); assay: Test 1 greenhouse foliar spray screen, powdery mildew on wheat; details: disease control rating, foliar spray on wheat, 400 ppm (+++ at 100 ppm)
[2] = system: Pyricularia oryzae (rice blast); assay: whole plant or invertebrate; details: disease control rating, foliar spray on rice, 400 ppm (+++ at 100 ppm)
[3] = system: Puccinia recondita tritici (leaf rust); assay: Test 1 greenhouse foliar spray screen, leaf rust on wheat; details: disease control rating, foliar spray on wheat, 400 ppm (+++ at 100 ppm)
[4] = system: Botrytis cinerea (gray mold); assay: Test 1 greenhouse foliar spray screen, gray mold on grape berries; details: disease control rating, spray on grape berries, 400 ppm (+++ at 100 ppm)
[5] = system: Pseudoperonospora cubensis (downy mildew); assay: Test 1 greenhouse foliar spray screen, downy mildew on squash; details: for DOWN MDEW: disease control rating, foliar spray on squash, 400 ppm (+++ at 100 ppm)
[6] = system: Cercospora beticola (leaf spot); assay: Test 1 greenhouse foliar spray screen, leaf spot on sugar beet; details: disease control rating, foliar spray on sugar beet, 400 ppm (+++ at 100 ppm)
[7] = system: Venturia inaequalis (apple scab); assay: Test 1 greenhouse foliar spray screen, apple scab on apple seedling; details: disease control rating, foliar spray on apple seedling, 400 ppm (+++ at 100 ppm)
[8] = system: Septoria tritici (leaf blotch); assay: Test 1 greenhouse foliar spray screen, leaf blotch on wheat; details: disease control rating, foliar spray on wheat, 400 ppm (+++ at 100 ppm)
[9] = system: southern armyworm (Spodopetra eridania Cramer); assay: Mite/insect screen, SAW; details: percent mortality, SAW, SM & MA RATE 200 PPM; for mortality at 200 ppm: Spodoptera eridania, read-out: SAW RESULTS %
Outline: (§1)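 Compounds dissolved in 50:50 acetone/alcohol containing sulfonate/nonionic emulsifier blends, then diluted with water to the indicated concentrations. Leaves sprayed on both surfaces to runoff at 10 psi and dried one hour. Percent mortality scored after standard exposure periods.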

[10] = system: Twospotted spider mites (Tetranychus urticae Koch); assay: Mite/insect screen, SM; details: percent mortality, SAW, SM & MA RATE 200 PPM; for mortality at 200 ppm: Tetranychus urticae, read-out: SM RESULTS %
Outline: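 Activity is expressed as percent mortality at the indicated spray concentrations. Plants are sprayed to runoff on upper and lower leaf surfaces with aqueous dilutions of an acetone/alcohol emulsifiable formulation, then dried for one hour.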

[11] = system: melon aphids (Aphis gossypii Glover); assay: Mite/insect screen, MA; details: percent mortality, SAW, SM & MA RATE 200 PPM; for mortality at 200 ppm: Aphis gossypii, read-out: MA RESULTS %
Outline: as §1

corn rootworm = assay: Mite/insect screen, CRW; details: percent mortality, CRW RATE 12.00 PPM; for mortality at 12 ppm: read-out: CRW RESULTS %
Outline: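 Compounds were dissolved in 50:50 acetone/alcohol containing sulfonate/nonionic emulsifier blends (23 g/L plus 13 g/L), then diluted with water to the test concentrations. Percent mortality was scored after standard exposure periods.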

SMILES | POWD MDEW [1] | RICE BLAST [2] | LEAF RUST [3] | GRAY MOLD [4] | DOWN MDEW [5] | LEAF SPOT [6] | APPL SCAB [7] | LEAF BLOT [8] | mortality at 200 ppm [9] | SAW RESULTS % [9] | mortality at 200 ppm [10] | SM RESULTS % [10] | mortality at 200 ppm [11] | MA RESULTS % [11] | CRW RESULTS % (corn rootworm) | mortality at 12 ppm (corn rootworm) | activity against downy mildew ([5]; summary statement in the description)
Fc1cc(F)c2nccc(NCCc3ccsc3)c2c1 [Example 150, 6,8-difluoro-N-[2-(3-thienyl)ethyl]-4-quinolinamine] | + (20-89% control at 400 ppm) | + (20-89% control at 400 ppm) | ++ (90-100% control at 400 ppm) | - (0-19% control at 400 ppm) | ++ (90-100% control at 400 ppm) | +++ (90-100% control at 100 ppm) | - (0-19% control at 400 ppm) | +++ (90-100% control at 100 ppm) | 0% | 0% | 0% | 0% | 0% | 0% | 0% | 0% | –
c1ccc2c(CCNc3ccnc4ccccc34)cccc2c1 [Example 151, N-[2-(1-naphthyl)ethyl]-4-quinolinamine] | + (20-89% control at 400 ppm) | + (20-89% control at 400 ppm) | ++ (90-100% control at 400 ppm) | - (0-19% control at 400 ppm) | +++ (90-100% control at 100 ppm) | + (20-89% control at 400 ppm) | - (0-19% control at 400 ppm) | + (20-89% control at 400 ppm) | 0% | – | 0% | – | 0% | – | – | 0% | –
c1ccc2cc(CCNc3ccnc4ccccc34)ccc2c1 [Example 152, N-[2-(2-naphthyl)ethyl]-4-quinolinamine] | ++ (90-100% control at 400 ppm) | +++ (90-100% control at 100 ppm) | ++ (90-100% control at 400 ppm) | - (0-19% control at 400 ppm) | +++ (90-100% control at 100 ppm) | +++ (90-100% control at 100 ppm) | - (0-19% control at 400 ppm) | +++ (90-100% control at 100 ppm) | 0% | 0% | 0% | 0% | 0% | 0% | 0% | 0% | –
FC(F)(F)c1ccc2c(NCCc3cccs3)ccnc2c1 [Example 153, N-[2-(2-thienyl)ethyl]-7-(trifluoromethyl)-4-quinolinamine] | + (20-89% control at 400 ppm) | ++ (90-100% control at 400 ppm) | ++ (90-100% control at 400 ppm) | - (0-19% control at 400 ppm) | + (20-89% control at 400 ppm) | - (0-19% control at 400 ppm) | - (0-19% control at 400 ppm) | - (0-19% control at 400 ppm) | 0% | – | 0% | – | 0% | – | – | 0% | –
Fc1cccc2c(NCCc3nc(-c4ccccc4)cs3)ccnc12 [Example 154, 8-fluoro-N-[2-(4-phenyl-2-thiazolyl)ethyl]-4-quinolinamine] | ++ (90-100% control at 400 ppm) | + (20-89% control at 400 ppm) | +++ (90-100% control at 100 ppm) | - (0-19% control at 400 ppm) | +++ (90-100% control at 100 ppm) | + (20-89% control at 400 ppm) | + (20-89% control at 400 ppm) | + (20-89% control at 400 ppm) | 0% | 0% | 0% | 0% | 0% | 0% | 0% | 0% | particularly excellent activity
